These compounds were tested against T1, DUX4 (Homo sapiens, UniProt Q9UBX2) (assay: DUX4 EC50 luciferase reporter protocol in transfected HEK293 cells). Details: 6 hr.
T1 construct: expressed in transfected cells; host or cells: HEK293
T1 sequence (Q9UBX2 whole entry): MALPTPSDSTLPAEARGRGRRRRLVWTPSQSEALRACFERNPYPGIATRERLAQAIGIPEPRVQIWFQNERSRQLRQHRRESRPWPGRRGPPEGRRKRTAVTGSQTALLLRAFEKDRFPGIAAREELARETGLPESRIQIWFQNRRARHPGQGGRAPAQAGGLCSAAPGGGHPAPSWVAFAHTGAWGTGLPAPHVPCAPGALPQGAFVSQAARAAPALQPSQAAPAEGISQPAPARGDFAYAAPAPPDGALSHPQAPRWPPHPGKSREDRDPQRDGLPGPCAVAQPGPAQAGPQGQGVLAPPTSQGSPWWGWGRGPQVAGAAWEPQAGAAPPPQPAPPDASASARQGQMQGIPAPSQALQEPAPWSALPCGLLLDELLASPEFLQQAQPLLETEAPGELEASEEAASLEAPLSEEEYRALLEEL
Assay type: cell-based
Description: EC50 Protocol This example provides a representative protocol for a single well of a 96-well plate. It can be scaled up as necessary for treatment of multiple wells. For negative controls, a well containing reporter DNA, Renilla DNA, and turbofect (without expression vector) were used. For positive controls, wells containing cells that were not treated with any inhibitor were used. They were transfected with the complete DNA lipid complex as set forth below. The DNA-lipid complex for one well of the 96-well plate is prepared by adding to a tube 100 ng of the transfection factor (TF) expression vector, 100 ng of TF reporter DNA, 10 ng of Renilla reporter DNA, […] Turbofect transfection reagent, and […] of the medium without any serum or penicillin/streptomycin. The combination was mixed by gentle flicking of the tube, and the mixture was pipetted into a well of a 96-well plate. The plate was then gently tapped to spread the combination evenly on the bottom of the well. The well was incubated for 30 min. HEK293 cells were grown until 80% confluent in DMEM supplemented with 10% fetal bovine serum, 1% penicillin streptomycin, and 1% amphotericin B. The adherent cells growing on a 10 cm plate were trypsinized with 1 mL of prewarmed trypsin. Once the cells detached from the plate, 10 mL of medium was added, and the cells were strained through a […] cell strainer. The cells were counted using a mixture of 10 mL cell suspension with 10 mL of trypan blue. Once the total number of cells are counted, a dilution of 150 k/mL was prepared. After incubation of the transfection complex was complete, […] of HEK293s (23.25 k total cells) were gently dispensed on top of the wells containing the 25 mL transfection complex, producing a total volume of about 180 mL. The mixture was then incubated for 24 h. To treat cells with each inhibitor, the inhibitors were prepared in the same growth medium. In a deep well block, the regular medium with serum was added to well 1 (135 mL) and to wells 2 through 10 (100 mL). To the first well was added 15 mL of 10 nM inhibitor. The final concentration of the drug in well 1 was 1 nM. The wells were pipeted up and down, and 50 mL was transferred from well 1 to well 2 (1/3 dilution). The well was mixed, and the seriation dilution was repeated with the remaining wells. Once the serial dilution was complete, using a multichannel pipet, 20 mL of each inhibitor were transferred to designated wells in a 96-well plate. […] Before the assay, a sufficient amount of 1× passive lysis buffer was prepared. The luciferase substrate buffer (Promega) was thawed completely and then mixed with the lyophilized luciferase substrate. The stop buffer (Promega) was also completely thawed. (1) Cell lysis: After treatment of the cells was complete, all the cell media is removed by flipping the 96-well plate over and tapping it dry on a dry paper towel. Immediately afterwards, the 1× passive lysis buffer (25 μL) was added. The plates were then placed on a rocker for 15 minutes at medium speed. (2)Measuring luciferase signal: The luciferase substrate solution for all wells was placed in a solution basin. The luciferase substrate solution was then added to every well (100 μL/well) using a multichannel pipette. The total luminescence was then read immediately using a plate reader. (3)Measuring Renilla signal: The “complete stop solution” was prepared in a solution basin by mixing the buffer with the 50× stop solution substrate (Promega) to make the final 1× solution. The complete stop solution was added to each well (50 μL/well) using a multichannel pipette. The total luminescence was then read immediately using a plate reader. Using a spreadsheet (e.g., Excel), the luciferase signal was divided by the renilla signal to get a relative luciferase unit.
For `O=C(CCCN1C(=O)CCC1=O)NC1CCC(Cc2nc3ccccc3s2)C1` (stereo not drawn) [Compound 158], the EC50 was > 10 µM.
`CC(=O)CCCCC(=O)Nc1ccc(-c2nccs2)cc1` [Compound 23] was tested, and the EC50 was > 10 µM.
For `CC(=O)NCCCC(=O)Nc1nc2ccccc2s1` [Compound 107], the EC50 was > 10 µM.
In the case of `CC(=O)NCCCC(=O)N[C@H]1CC[C@H](Cc2nc3ccccc3s2)CC1` [Compound 172], the EC50 is reported as > 10 µM.
For `CC(=O)NCCCNC(=O)c1cc(C#N)cc(-c2nc3cc(F)ccc3s2)c1` [Compound 188], the EC50 was > 10 µM.
`O=C(CCCN1C(=O)CCC1=O)N[C@H]1CC[C@H](c2nc3ccccc3s2)C1` [Compound 161] was tested, and the EC50 was > 10 µM.
`O=C(Cc1ccc(-c2nc3ccccc3s2)cc1)NCCN1CCCC1=O` [Compound 119] was tested, and the EC50 was > 10 µM.
With `CC(=O)NCCCC(=O)N[C@@H]1CC[C@H](c2nc3ccccc3s2)C1` [Compound 114] the EC50 was > 10 µM.
`CC(=O)NCCCC(=O)Nc1cc(C)cc(-c2nc3ccccc3s2)c1` [Compound 72] was tested, and the EC50 was > 10 µM.
For `CC(=O)NCCCNC(=O)C12CCC(c3nc4ccccc4s3)(CC1)CC2` [Compound 173], the EC50 was > 10 µM.
In the case of `CC(=O)NCCCC(=O)N[C@H]1C[C@H](c2nc3ccccc3s2)C1` [Compound 112], the EC50 is reported as > 10 µM.
`O=C(CCCN1CCCC1=O)NC1CCCC1c1nc2ccccc2s1` (stereo not drawn) [Compound 117] was tested, and the EC50 was > 10 µM.
For `CC(=O)NCCCC(=O)Nc1cc(Cl)cc(-c2nc3ccccc3s2)c1` [Compound 101], the EC50 was > 10 µM.
With `CC(=O)NC1CCC(C(=O)N[C@H]2CC[C@H](c3nc4ccccc4s3)CC2)C1` (stereo partly drawn) [Compound 134] the EC50 was > 10 µM.
With `CC(=O)NCCCC(=O)N[C@H]1CC[C@@H](Cc2nc3ccccc3s2)CC1` [Compound 171] the EC50 was > 10 µM.
In the case of `O=C(CCCCN1C(=O)CCC1=O)N[C@H]1CC[C@@H](c2nc3ccccc3s2)CC1` [Compound 151], the EC50 is reported as > 10 µM.
With `CC(=O)NCCCC(=O)N[C@H]1CC[C@H](c2nc3ccccc3s2)C1` [Compound 115] the EC50 was > 10 µM.
For `CC(=O)N[C@@H]1CC[C@H](C(=O)Nc2nc3ccccc3s2)C1` [Compound 182], the EC50 was > 10 µM.
With `CC(=O)NCCCNC(=O)c1ccc(-c2nc3ccccc3s2)o1` [Compound 149] the EC50 was > 10 µM.
In the case of `O=C(CCCN1C(=O)CCC1=O)NC1CCCC1c1nc2ccccc2s1` (stereo not drawn) [Compound 92], the EC50 is reported as > 10 µM.
For `O=C(CCN1CCCC1=O)Nc1ccc(Cc2nc3ccccc3s2)cc1` [Compound 8], the EC50 was > 10 µM.
`O=C(CCC1CCC(=O)N1)Nc1ccc(-c2nc3ccccc3s2)o1` (stereo not drawn) [Compound 179] was tested, and the EC50 was > 10 µM.
`O=C(NCCN1C(=O)CCC1=O)c1ccc(-c2nc3ccccc3s2)cc1` [Compound 22] was tested, and the EC50 was > 10 µM.
`O=C(CCCc1cccnc1)N[C@H]1CC[C@H](c2nc3ccccc3s2)CC1` [Compound 164] was tested, and the EC50 was > 10 µM.
With `CC(C)(NC(=O)CCCN1CCCC1=O)c1ccc(-c2nc3ccccc3s2)cc1` [Compound 110] the EC50 was > 10 µM.
For `CC(=O)N[C@@H]1CC[C@@H](C(=O)Nc2nc3ccccc3s2)C1` [Compound 185], the EC50 was > 10 µM.
For `O=C(CCCc1cccnc1)NC1CCC(c2nc3ccccc3s2)C1` (stereo not drawn) [Compound 157], the EC50 was > 10 µM.
With `CC(=O)NCCCc1nc(CCCC(=O)Nc2ccc(-c3nc4cc(F)ccc4s3)cc2)co1` [Compound 138] the EC50 was > 10 µM.
`O=C(CCCN1C(=O)CCC1=O)NC1CC(c2nc3ccccc3s2)C1` (stereo not drawn) [Compound 89] was tested, and the EC50 was > 10 µM.
With `CC(=O)NCCCC(=O)Nc1cc(Cl)cc(-c2nc3cc(F)ccc3s2)c1` [Compound 102] the EC50 was > 10 µM.
`CC(=O)NCCCC(=O)NCCCc1nc2ccccc2s1` [Compound 106] was tested, and the EC50 was > 10 µM.
In the case of `CC(=O)N[C@H]1CC[C@@H](C(=O)Nc2nc3ccccc3s2)C1` [Compound 183], the EC50 is reported as > 10 µM.
`CC(=O)NCCCC(=O)NC1CCC(c2nc3ccccc3s2)CC1` (stereo not drawn) [Compound 28] was tested, and the EC50 was > 10 µM.
For `CN(C(=O)CCC1CCC(=O)N1)c1ccc(-c2nc3ccccc3s2)cc1` (stereo not drawn) [Compound 177], the EC50 was > 10 µM.
For `O=C(CCCN1C(=O)CCC1=O)NCCCc1nc2ccccc2s1` [Compound 91], the EC50 was > 10 µM.
`CC(=O)NCCCC(=O)N[C@H]1C[C@@H](c2nc3ccccc3s2)C1` [Compound 113] was tested, and the EC50 was > 10 µM.
With `O=C(CCCc1cccnc1)N[C@H]1CC[C@@H](c2nc3ccccc3s2)CC1` [Compound 163] the EC50 was > 10 µM.
For `CC(=O)NCCCC(=O)Nc1ccc(-c2nccs2)cc1` [Compound 70], the EC50 was > 10 µM.
For `O=C(CCCN1C(=O)CCC1=O)Nc1nc2ccccc2s1` [Compound 108], the EC50 was > 10 µM.
With `C=C(C)NCCC(=C)Nc1cc(C)cc(Cc2nc3ccccc3s2)c1` [Compound 120] the EC50 was > 10 µM.
For `O=C(CCCN1CCCC1=O)NCCCc1nc2ccccc2s1` [Compound 118], the EC50 was > 10 µM.
In the case of `CC(=O)NCCCC(=O)Nc1cccc(-c2nc3ccccc3s2)c1` [Compound 71], the EC50 is reported as > 10 µM.
With `CN(C(=O)CCCN1C(=O)CCC1=O)c1ccc(-c2nc3cc(F)ccc3s2)cc1` [Compound 144] the EC50 was > 10 µM.
With `O=C(NCCc1cncnc1)c1ccc(-c2nc3ccccc3s2)cc1` [Compound 11] the EC50 was > 10 µM.
In the case of `O=C(CCCN1C(=O)CCC1=O)N[C@@H]1CC[C@@H](c2nc3ccccc3s2)C1` [Compound 162], the EC50 is reported as > 10 µM.
In the case of `O=C(CCCc1cnco1)Nc1ccc(Cc2nc3ccccc3s2)cc1` [Compound 66], the EC50 is reported as > 10 µM.
For `CC(=O)NC1CCC(C(=O)Nc2nc3ccccc3s2)C1` (stereo not drawn) [Compound 131], the EC50 was > 10 µM.
For `CC(=O)NCCCC(=O)Nc1nc(-c2ccccc2)cs1` [Compound 126], the EC50 was > 10 µM.
In the case of `O=C(CCCN1C(=O)CCC1=O)N[C@H]1C[C@@H](c2nc3ccccc3s2)C1` [Compound 97], the EC50 is reported as > 10 µM.
In the case of `O=C(NCCCN1C(=O)CCC1=O)c1ccc(-c2nc3ccccc3s2)cc1` [Compound 7], the EC50 is reported as > 10 µM.
`CN(C(=O)CCCN1C(=O)CCC1=O)c1ccc(Cc2nc3ccccc3s2)cc1` [Compound 169] was tested, and the EC50 was > 10 µM.
With `O=C(CCC1CCC(=O)N1)Nc1ccc(Cc2nc3ccccc3s2)cc1` (stereo not drawn) [Compound 178] the EC50 was > 10 µM.
For `O=C(CCCN1C(=O)CCC1=O)NC1CCC(c2nc3ccccc3s2)C1` (stereo not drawn) [Compound 90], the EC50 was > 10 µM.

The compounds below were run on MB200 cells (assay: Cell cytotoxicity 50 assay (CC50), MB200 cells, cell titer glo). Details: 72 h.
Assay type: cell-based
Method in brief: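 MB200 cells were seeded at 10 k/well in F10 medium with bFGF, 15% FBS and dexamethasone. Cells were exposed to serially diluted compound (from 10 mM stock) in triplicate for 72 h at 37 °C. Viability was read by CellTiter-Glo luminescence and CC50 was fitted.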
With `O=C(CCCN1C(=O)CCC1=O)N[C@H]1CC[C@H](c2nc3ccccc3s2)C1` [Compound 161] the CC50 was > 10 µM.
With `O=C(CCCN1C(=O)CCC1=O)Nc1nc2ccccc2s1` [Compound 108] the CC50 was > 10 µM.

What follows are compounds tested on HEK (assay: Cell cytotoxicity 50 assay (CC50), HEK cells). Details: not given.
Assay type: cell-based
Method in brief: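 Starting from a 10 mM drug solution, serial dilutions were made in medium and added onto HEK cells, which were then incubated 72 h at 37 °C. Viability was read as CellTiter-Glo luminescence after 5 min, and CC50 was obtained by curve fitting.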
`O=C(CCCN1C(=O)CCC1=O)N[C@H]1CC[C@H](c2nc3ccccc3s2)C1` [Compound 161] was tested, and the CC50 was > 10 µM.
`O=C(CCCN1C(=O)CCC1=O)Nc1nc2ccccc2s1` [Compound 108] was tested, and the CC50 was > 10 µM.

Reference: patent publication US20250313555A1, “2-SUBSTITUTED THIAZOLE AND BENZOTHIAZOLE COMPOSITIONS AND METHODS AS DUX4 INHIBITORS” (ALTAY THERAPEUTICS, INC., priority 2022, published 2025)
